In US10670605B2, “Cysteine reactive probes and uses thereof” (The Scripps Research Institute, priority 2015, dated 2020):
Blank lines part the entries; values can stand above or below the compound they belong to.

Columns and labels:
Experiment in all cases: Competitive isoTOP-ABPP in situ (fragment-treated cells)
Assay type in all cases: cell-based
[1] = target: T1, cysteines in MDA-MB-231 and Ramos cells (Homo sapiens, UniProt Q9BQ69)
T1 sequence (Q9BQ69 1-325): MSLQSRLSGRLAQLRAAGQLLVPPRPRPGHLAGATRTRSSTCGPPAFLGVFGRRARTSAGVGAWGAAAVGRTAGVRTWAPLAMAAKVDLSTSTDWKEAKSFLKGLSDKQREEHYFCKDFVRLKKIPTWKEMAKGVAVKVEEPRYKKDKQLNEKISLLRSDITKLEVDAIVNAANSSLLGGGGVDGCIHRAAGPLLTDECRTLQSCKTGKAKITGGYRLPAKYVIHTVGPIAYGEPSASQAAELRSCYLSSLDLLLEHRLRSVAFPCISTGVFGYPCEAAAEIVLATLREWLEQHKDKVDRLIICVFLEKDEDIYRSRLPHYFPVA

[2] = target: T2, cysteines in MDA-MB-231 and Ramos cells (Homo sapiens, UniProt P24752)
T2 sequence (P24752 34-427): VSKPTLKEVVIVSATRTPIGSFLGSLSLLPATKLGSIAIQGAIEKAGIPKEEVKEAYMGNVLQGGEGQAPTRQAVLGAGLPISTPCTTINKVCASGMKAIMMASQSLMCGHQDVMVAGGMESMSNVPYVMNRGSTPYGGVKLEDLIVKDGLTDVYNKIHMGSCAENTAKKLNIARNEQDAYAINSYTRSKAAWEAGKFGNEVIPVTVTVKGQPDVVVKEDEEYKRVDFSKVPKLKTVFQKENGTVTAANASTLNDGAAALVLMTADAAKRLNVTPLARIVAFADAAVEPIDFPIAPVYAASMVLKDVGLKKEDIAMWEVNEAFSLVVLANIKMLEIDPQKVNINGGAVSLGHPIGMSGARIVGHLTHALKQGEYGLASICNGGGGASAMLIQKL

[3] = target: T3, cysteines in MDA-MB-231 and Ramos cells (Homo sapiens, UniProt P51946)
T3 sequence (P51946 1-323): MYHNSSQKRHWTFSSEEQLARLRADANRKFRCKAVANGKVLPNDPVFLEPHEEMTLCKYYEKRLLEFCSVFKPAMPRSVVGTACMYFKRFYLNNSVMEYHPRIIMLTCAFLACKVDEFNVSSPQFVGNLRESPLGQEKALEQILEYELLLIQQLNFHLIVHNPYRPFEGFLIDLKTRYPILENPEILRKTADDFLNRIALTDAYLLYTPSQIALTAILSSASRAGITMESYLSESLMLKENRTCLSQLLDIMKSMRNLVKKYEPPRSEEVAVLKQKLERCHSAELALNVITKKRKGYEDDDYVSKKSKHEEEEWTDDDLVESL

[4] = target: cysteines in MDA-MB-231 and Ramos cells (Homo sapiens, UniProt P12268)
[5] = target: cysteines in MDA-MB-231 and Ramos cells (Homo sapiens, UniProt Q8TAQ2)
[6] = target: T4, cysteines in MDA-MB-231 and Ramos cells (Homo sapiens, UniProt Q96S55); details: 200 μM, insitu, 231
T4 sequence (Q96S55 1-665): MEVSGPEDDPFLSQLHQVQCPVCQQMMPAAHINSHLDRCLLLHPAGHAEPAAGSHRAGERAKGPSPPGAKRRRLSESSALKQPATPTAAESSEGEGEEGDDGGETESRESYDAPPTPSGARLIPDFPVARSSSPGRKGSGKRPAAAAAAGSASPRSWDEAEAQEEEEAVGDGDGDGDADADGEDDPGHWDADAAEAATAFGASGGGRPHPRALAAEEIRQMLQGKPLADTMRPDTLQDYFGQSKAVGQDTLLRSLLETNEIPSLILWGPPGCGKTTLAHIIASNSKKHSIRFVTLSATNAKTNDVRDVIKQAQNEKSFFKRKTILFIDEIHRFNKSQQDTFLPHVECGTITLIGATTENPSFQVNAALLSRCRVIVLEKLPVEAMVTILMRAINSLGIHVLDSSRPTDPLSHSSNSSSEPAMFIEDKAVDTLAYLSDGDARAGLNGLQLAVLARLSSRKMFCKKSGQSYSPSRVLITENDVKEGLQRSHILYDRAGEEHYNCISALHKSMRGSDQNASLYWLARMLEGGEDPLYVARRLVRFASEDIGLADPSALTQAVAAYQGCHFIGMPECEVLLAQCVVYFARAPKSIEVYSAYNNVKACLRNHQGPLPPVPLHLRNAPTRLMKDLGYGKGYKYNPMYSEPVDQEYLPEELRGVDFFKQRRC

Chain of cysteines in MDA-MB-231 and Ramos cells (Homo sapiens, UniProt Q8TAQ2) (Q8TAQ2 whole entry): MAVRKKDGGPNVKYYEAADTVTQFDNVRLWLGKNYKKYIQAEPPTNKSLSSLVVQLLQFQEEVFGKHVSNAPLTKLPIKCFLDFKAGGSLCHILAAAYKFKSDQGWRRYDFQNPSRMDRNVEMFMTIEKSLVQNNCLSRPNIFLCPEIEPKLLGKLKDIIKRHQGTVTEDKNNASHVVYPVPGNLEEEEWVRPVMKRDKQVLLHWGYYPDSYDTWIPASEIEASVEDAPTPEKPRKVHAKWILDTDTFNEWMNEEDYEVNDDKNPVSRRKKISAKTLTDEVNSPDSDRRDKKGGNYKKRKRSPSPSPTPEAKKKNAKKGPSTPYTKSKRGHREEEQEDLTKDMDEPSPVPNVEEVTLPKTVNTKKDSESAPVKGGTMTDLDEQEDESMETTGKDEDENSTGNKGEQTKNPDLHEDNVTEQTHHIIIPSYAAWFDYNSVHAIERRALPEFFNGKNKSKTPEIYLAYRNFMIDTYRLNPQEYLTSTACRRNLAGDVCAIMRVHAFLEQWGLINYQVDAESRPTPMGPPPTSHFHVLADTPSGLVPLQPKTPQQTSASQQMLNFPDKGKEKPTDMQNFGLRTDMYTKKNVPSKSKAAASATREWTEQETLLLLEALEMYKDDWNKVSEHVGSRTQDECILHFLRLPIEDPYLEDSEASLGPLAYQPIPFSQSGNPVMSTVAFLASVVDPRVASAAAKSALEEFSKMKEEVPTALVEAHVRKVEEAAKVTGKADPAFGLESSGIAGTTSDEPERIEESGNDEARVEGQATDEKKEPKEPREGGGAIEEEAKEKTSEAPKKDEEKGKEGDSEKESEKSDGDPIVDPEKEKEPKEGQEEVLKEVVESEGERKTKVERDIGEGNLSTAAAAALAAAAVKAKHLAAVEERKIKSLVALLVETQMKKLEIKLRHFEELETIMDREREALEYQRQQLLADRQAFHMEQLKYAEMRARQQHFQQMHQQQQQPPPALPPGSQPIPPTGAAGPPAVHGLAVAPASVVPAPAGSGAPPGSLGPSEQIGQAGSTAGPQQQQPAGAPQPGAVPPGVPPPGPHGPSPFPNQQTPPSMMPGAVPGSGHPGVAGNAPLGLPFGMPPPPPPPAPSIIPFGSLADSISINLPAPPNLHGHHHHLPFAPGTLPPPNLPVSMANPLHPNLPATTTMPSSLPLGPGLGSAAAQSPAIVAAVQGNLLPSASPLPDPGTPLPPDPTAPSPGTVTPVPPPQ

SMILES: CC1CCc2ccccc2N1C(=O)CCl (stereo not shown) [compound 45]
isoTOP-ABPP ratio Q9BQ69_C186 ([1]; 200 μM, insitu, 231): 3.3 | isoTOP-ABPP ratio P24752_C119 ([2]; 200 μM, insitu, 231): 12.4 | isoTOP-ABPP ratio P24752_C413 ([2]; 200 μM, insitu, 231): 20.0 | isoTOP-ABPP ratio P51946_C244 ([3]; 200 μM, insitu, 231): 2.4 | isoTOP-ABPP ratio P12268_C140 ([4]; 200 μM, insitu, 231): 1.9 | isoTOP-ABPP ratio P12268_C331 ([4]; 200 μM, insitu, 231): 4.1 | isoTOP-ABPP ratio Q96S55_C272 [6]: 2.5 | isoTOP-ABPP ratio Q8TAQ2_C145 ([5]; 200 μM, insitu, 231): 2.9

SMILES: COc1ccc2c(c1)CCCN2C(=O)CCl [compound 2]
isoTOP-ABPP reactivity Q9BQ69_C186 MACROD1 ([1]; 200 μM, insitu, 231): 4.8 | isoTOP-ABPP reactivity P24752_C119 ACAT1 ([2]; 200 μM, insitu, 231): 2.6 | isoTOP-ABPP reactivity P24752_C126 ACAT1 ([2]; 200 μM, insitu, 231): 9.1 | isoTOP-ABPP reactivity P24752_C196 ACAT1 ([2]; 200 μM, insitu, 231): 20.0 | isoTOP-ABPP reactivity P24752_C413 ACAT1 ([2]; 200 μM, insitu, 231): 20.0 | isoTOP-ABPP reactivity P51946_C244 CCNH ([3]; 200 μM, insitu, 231): 1.9 | isoTOP-ABPP reactivity P12268_C140 IMPDH2 ([4]; 200 μM, insitu, 231): 1.3 | isoTOP-ABPP reactivity P12268_C331 IMPDH2 ([4]; 200 μM, insitu, 231): 12.1 | isoTOP-ABPP reactivity Q96S55_C272 WRNIP1 [6]: 2.2 | isoTOP-ABPP reactivity Q8TAQ2_C145 SMARCC2 ([5]; 200 μM, insitu, 231): 4.6

SMILES: CC(C)CCOCCNC(=O)CCl [compound 27]
isoTOP-ABPP ratio Q9BQ69_C186 ([1]; 200 μM, insitu, 231): 2.4 | isoTOP-ABPP ratio P24752_C119 ([2]; 200 μM, insitu, 231): 1.6 | isoTOP-ABPP ratio P24752_C413 ([2]; 200 μM, insitu, 231): 1.9 | isoTOP-ABPP ratio P51946_C244 ([3]; 200 μM, insitu, 231): 1.1 | isoTOP-ABPP ratio P12268_C140 ([4]; 200 μM, insitu, 231): 0.5 | isoTOP-ABPP ratio P12268_C331 ([4]; 200 μM, insitu, 231): 0.7 | isoTOP-ABPP ratio Q96S55_C272 [6]: 0.9 | isoTOP-ABPP ratio Q8TAQ2_C145 ([5]; 200 μM, insitu, 231): 2.1

SMILES: C=CC(=O)N(Cc1cccnc1)c1cc(C(F)(F)F)cc(C(F)(F)F)c1 [compound 31]
isoTOP-ABPP ratio Q9BQ69_C186 ([1]; 200 μM, insitu, 231): 0.5 | isoTOP-ABPP ratio P24752_C119 ([2]; 200 μM, insitu, 231): 0.6 | isoTOP-ABPP ratio P24752_C413 ([2]; 200 μM, insitu, 231): 1.0 | isoTOP-ABPP ratio, P24752_C126 ([2]; 200 μM, insitu, 231): 0.7 | isoTOP-ABPP ratio P24752_C119 ([2]; 200 μM, insitu, ramos): 0.7 | isoTOP-ABPP ratio P12268_C140 ([4]; 200 μM, insitu, 231): 0.6 | isoTOP-ABPP ratio P12268_C331 ([4]; 200 μM, insitu, 231): 1.0 | isoTOP-ABPP ratio P12268_C140 ([4]; 200 μM, insitu, ramos): 1.0 | isoTOP-ABPP ratio P12268_C331 ([4]; 200 μM, insitu, ramos): 1.1 | isoTOP-ABPP ratio Q8TAQ2_C145 ([5]; 200 μM, insitu, 231): 0.8 | isoTOP-ABPP ratio Q8TAQ2_C145 ([5]; 200 μM, insitu, ramos): 1.1

Continued, values first:

isoTOP-ABPP ratio Q9BQ69_C186 ([1]; 100 μM in situ 231): 1.0 | isoTOP-ABPP ratio P24752_C119 ([2]; 100 μM in situ 231): 1.2 | isoTOP-ABPP ratio P24752_C413 ([2]; 100 μM in situ 231): 1.2 | isoTOP-ABPP ratio, P24752_C126 ([2]; 100 μM in situ 231): 1.2 | isoTOP-ABPP ratio, P24752_C196 ([2]; 100 μM in situ 231): 1.1 | isoTOP-ABPP ratio P51946_C244 ([3]; 100 μM in situ 231): 1.3 | isoTOP-ABPP ratio P12268_C140 ([4]; 100 μM in situ 231): 0.6 | isoTOP-ABPP ratio P12268_C331 ([4]; 100 μM in situ 231): 1.0 | isoTOP-ABPP ratio Q8TAQ2_C145 ([5]; 100 μM in situ 231): 7.6
SMILES: Cn1cc(S(=O)(=O)N2CCOCC2)cc1C(=O)NC(=O)CCl [compound 11]

isoTOP-ABPP ratio Q9BQ69_C186 ([1]; 200 μM, insitu, 231): 3.6 | isoTOP-ABPP ratio P24752_C119 ([2]; 200 μM, insitu, 231): 1.2 | isoTOP-ABPP ratio P24752_C413 ([2]; 200 μM, insitu, 231): 1.1 | isoTOP-ABPP ratio, P24752_C196 ([2]; 200 μM, insitu, 231): 1.0 | isoTOP-ABPP ratio P51946_C244 ([3]; 200 μM, insitu, 231): 1.0 | isoTOP-ABPP ratio P12268_C140 ([4]; 200 μM, insitu, 231): 1.2 | isoTOP-ABPP ratio P12268_C331 ([4]; 200 μM, insitu, 231): 1.3 | isoTOP-ABPP ratio Q96S55_C272 [6]: 1.3 | isoTOP-ABPP ratio Q8TAQ2_C145 ([5]; 200 μM, insitu, 231): 1.3
SMILES: C=CC(=O)Nc1cc(F)c(N2CCN(C(=O)OC(C)(C)C)CC2)c(F)c1 [compound 38]

isoTOP-ABPP reactivity Q9BQ69_C186 MACROD1 ([1]; 200 μM, insitu, 231): 5.0 | isoTOP-ABPP reactivity P24752_C119 ACAT1 ([2]; 200 μM, insitu, 231): 5.5 | isoTOP-ABPP reactivity P24752_C126 ACAT1 ([2]; 200 μM, insitu, 231): 4.5 | isoTOP-ABPP reactivity P24752_C413 ACAT1 ([2]; 200 μM, insitu, 231): 20.0 | isoTOP-ABPP reactivity P12268_C140 IMPDH2 ([4]; 200 μM, insitu, 231): 0.9 | isoTOP-ABPP reactivity Q96S55_C272 WRNIP1 [6]: 1.2
SMILES: COc1cc2c(cc1OC)CN(C(=O)CCl)CC2 [compound 8]

isoTOP-ABPP ratio Q9BQ69_C186 ([1]; 200 μM, insitu, ramos): 1.5 | isoTOP-ABPP ratio P24752_C119 ([2]; 200 μM, insitu, ramos): 1.2 | isoTOP-ABPP ratio P24752_C413 ([2]; 200 μM, insitu, ramos): 1.2 | isoTOP-ABPP ratio, P24752_C126 ([2]; 200 μM, insitu, ramos): 1.2 | isoTOP-ABPP ratio, P24752_C196 ([2]; 200 μM, insitu, ramos): 1.1 | isoTOP-ABPP ratio P51946_C244 ([3]; 200 μM, insitu, ramos): 1.1 | isoTOP-ABPP ratio P12268_C140 ([4]; 200 μM, insitu, ramos): 1.6 | isoTOP-ABPP ratio P12268_C331 ([4]; 200 μM, insitu, ramos): 1.3 | isoTOP-ABPP ratio Q8TAQ2_C145 ([5]; 200 μM, insitu, ramos): 2.7
SMILES: O=C(CCl)N1CCN(CC(=O)N2CCOCC2)CC1 [compound 29]
